{"source": "patent US11273206B2", "about": "“Targeting of pharmaceutical agents to pathologic areas using bifunctional fusion polypeptides” (Counterpoint Biomedica LLC, priority 2014, dated 2022)", "key": {"[1]": {"test_system": "subcutaneous human pancreatic cancer xenografts"}, "[2]": {"test_system": "subcutaneous human pancreatic cancer xenografts", "settings": "paclitaxel without aptamer; cited from earlier work"}, "[3]": {"test_system": "Locally Recurrent or Metastatic Breast Cancer", "settings": "Phase III, once per week; cited from earlier work"}, "[4]": {"test_system": "Collagen-Agarose beads", "test": "Collagen-agarose chromatography of RNA-Apts with Oregon Green 488 labeled oligonucleotides", "type": "binding", "settings": "for retention of labeled oligonucleotides on collagen-agarose mini-columns: FIG. 10C; for depletion of fluorescently labeled oligonucleotides from the column eluates: increasing amounts of RNA-Apt, FIG. 10B", "description": "Short oligonucleotides labeled with Oregon Green 488 were incubated with increasing amounts of RNA-Apt 07 or RNA-Apt 08 in PBS for 30 min at 30° C. and then applied to the chromatography column of collagen-agarose beads, followed by successive washes with (1) PBS, (2) PBS/PBS, Tween-20, BSA. The retention to the column was documented by use of a blue-light transilluminator with an amber filter; quantitative data was obtained with a Quantus fluorometer."}, "[5]": {"test": "Serum stability (resistance to proteolysis) of Tx-Apts", "type": "in vitro ADME", "settings": "FIG. 4C"}, "[6]": {"test_system": "collagen agarose beads", "test": "Collagen-agarose column chromatography of mAb-aptamers with fluorescent Rabbit-Anti-Human Abs", "type": "binding", "settings": "FIG. 7B"}, "[7]": {"test": "Serum stability (resistance to proteolysis) of mAb-aptamers", "type": "in vitro ADME", "settings": "FIG. 7C", "text": "The serum stability (resistance to proteolysis) of mAb-Aptamer 1, mAb-Aptamer 2 and mAb-Aptamer 4 were further analyzed."}, "[8]": {"test_system": "subcutaneous tumors", "test": "Tumor targeting of FITC-labeled collagen-binding construct after intravenous infusion", "type": "in vivo", "settings": "intravenous infusion into the tail vein of nude mice; FIGS. 3C-3D"}, "[9]": {"test_system": "Collagen-Agarose beads", "test": "Collagen-agarose column chromatography of FITC-labeled collagen-binding constructs", "settings": "increasing amounts applied to Collagen-Agarose beads, in vitro; FIG. 3B", "text": "Three fluorescein isothiocyanate (FITC)-labeled collagen-binding constructs were generated and tested. Construct 1 (ac-L1/XC-BD1/L3/FITC) had the sequence of Ac-RRGVHVGWREPSFMALSMPHGGSGK-(FITC) (SEQ ID NO: 45); Construct 2(ac-L1/XC-BD2/L3/FITC) had the sequence of Ac-RRGVHVGWREPGRMELNMPHGGSGK-(FITC) (SEQ ID NO: 46); Construct 3 (ac-L2/XC-BD2/L3/FITC) had the sequence of Ac-RRGVRVAWREPGRMELNMPHGGSGK-(FITC) (SEQ ID NO: 47). […] Increasing amounts of these constructs were applied to the chromatography columns of Collagen-Agarose beads, followed by successive washes with (1) PBS, (2) PBS/PBS, Tween-20, BSA. The retention of the constructs to the column was documented by use of a blue-light transilluminator with an amber filter; quantitative data was obtained with a Quantus fluorometer."}}, "note": "Where a SMILES comes first, the peptide text is derived from it. Primed or numbered codes have the meaning given here. Where no end group is shown, it is not given here. [ ]: non-standard residue; d: D form. The star is where a group is joined. FITC = O=C1OC2(c3ccc(O)cc3Oc3cc(O)ccc32)c2ccc(NC(=S)*)cc21; FITC′ = fluorescein isothiocyanate label; PEG = not defined here", "data": [{"compound": "CC(=O)O[C@H]1C(=O)[C@@]2(C)[C@H]([C@H](OC(=O)c3ccccc3)[C@]3(O)C[C@H](OC(=O)[C@H](O)[C@@H](NC(=O)c4ccccc4)c4ccccc4)C(C)=C1C3(C)C)[C@]1(OC(C)=O)CO[C@@H]1C[C@@H]2O", "note": "[paclitaxel]", "values": [{"measurement": "active dose as fraction of the low metronomic doses commonly used", "setting": "[1]; targeted paclitaxel treated mice", "result": "1/10"}, {"measurement": "active dose as fraction of the normal effective dose of paclitaxel in mice", "setting": "[1]; used with Taxol-aptamer", "result": "1/50"}, {"measurement": "dose at which paclitaxel exhibited anti-angiogenic activity", "setting": "[1]; used with Taxol-aptamer, FIG. 6C", "result": 0.2, "unit": "mg/kg"}, {"measurement": "normal effective dose of paclitaxel in mice", "setting": "[2]", "result": 10, "unit": "mg/kg"}, {"measurement": "clinical performance compared with Abraxane", "setting": "[3]", "result": "just as good or better than Abraxane"}, {"measurement": "toxicity compared with Abraxane", "setting": "[3]", "result": "significantly less toxicity"}]}, {"compound": "RRGVHVGWREPSFMALSMPHGGRRRRRRRRR [RNA-Apt 08]", "values": [{"measurement": "retention of labeled oligonucleotides on collagen-agarose mini-columns", "setting": "[4]", "result": "retaining the labeled oligonucleotides on the collagen-agarose mini-columns"}, {"measurement": "depletion of fluorescently labeled oligonucleotides from the column eluates", "setting": "[4]", "result": "depleted fluorescently labeled-oligonucleotides from the eluates"}]}, {"compound": "RRRRRRRRRRRGVHVGWREPSFMALSMPHGG [RNA-Apt 07]", "values": [{"measurement": "retention of labeled oligonucleotides on collagen-agarose mini-columns", "setting": "[4]", "result": "retaining the labeled oligonucleotides on the collagen-agarose mini-columns"}, {"measurement": "depletion of fluorescently labeled oligonucleotides from the column eluates", "setting": "[4]", "result": "depleted fluorescently labeled-oligonucleotides from the eluates"}]}, {"compound": "Ac-[dR][dR]GVHVGWREPGRMELNMPHGGSGRGVGIMKACGRTRHTVR[dM]G (N-terminus assumed) [Tx-Apt2, Ac-[r-r-G-V-H-V-G]-W-R-E-P-G-R-M-E-L-N-M-P-H-[G-G-S-G]-R-G-V-G-I-M-K-A-C-G-R-T-R-H-T-V-R-m-G]", "values": [{"measurement": "serum stability (resistance to proteolysis) over time", "setting": "[5]", "result": "most stable"}]}, {"compound": "r-r-GVHVGWREPGRMELNMPHGGSGGHWRGWVAGGSGGHWRGWV-a-a ([dR][dR]GVHVGWREPGRMELNMPHGGSGGHWRGWVAGGSGGHWRGWV[dA][dA]) [mAb-Aptamer 2]", "values": [{"measurement": "binding of antibodies to the collagen beads", "setting": "[6]", "result": "higher binding"}]}, {"compound": "(PEG)-[C-A-R-R-G-V-H-V-G]-W-R-E-P-G-R-M-E-L-N-M-P-H-[G-G-S-G-G]-H-W-R-G-W-V-A-[G-G-S-G-G]-H-W-R-G-W-V-A-p-t ({PEG}-CARRGVHVGWREPGRMELNMPHGGSGGHWRGWVAGGSGGHWRGWVA[dP][dT]; reading uncertain; also: printed as (PEG)-[C-A-R-R-G-V-H-V-G]-W-R-E-P-G-R-M-E-L-N-M-P-H-[G-G-S-G-G]-H-W-R-G-W-V-A-[G-G-S-G-G]-H-W-R-G-W-V-A-p-t) [mAb-Aptamer 4]", "values": [{"measurement": "serum stability (resistance to proteolysis)", "setting": "[7]", "result": "greatest serum stability"}, {"measurement": "binding of antibodies to the collagen beads", "setting": "[6]", "result": "higher binding"}]}, {"compound": "CSCC[C@H](NC(=O)[C@H](CCCNC(=N)N)NC(=O)CNC(=O)[C@@H]1CCCN1C(=O)[C@H](CCC(=O)O)NC(=O)[C@H](CCCNC(=N)N)NC(=O)[C@H](Cc1c[nH]c2ccccc12)NC(=O)CNC(=O)[C@@H](NC(=O)[C@H](Cc1c[nH]cn1)NC(=O)[C@@H](NC(=O)CNC(=O)[C@H](CCCNC(=N)N)NC(=O)[C@H](CCCNC(=N)N)NC(C)=O)C(C)C)C(C)C)C(=O)N[C@@H](CCC(=O)O)C(=O)N[C@@H](CC(C)C)C(=O)N[C@@H](CC(N)=O)C(=O)N[C@@H](CCSC)C(=O)N1CCC[C@H]1C(=O)N[C@@H](Cc1c[nH]cn1)C(=O)NCC(=O)NCC(=O)N[C@@H](CO)C(=O)NCC(=O)N[C@@H](CCCCNC(=S)Nc1ccc2c(c1)C(=O)OC21c2ccc(O)cc2Oc2cc(O)ccc21)C(=O)O", "note": "[Construct 2, Ac-RRGVHVGWREPGRMELNMPHGGSGK-(FITC)] (Ac-RRGVHVGWREPGRMELNMPHGGSGK(FITC)-OH)", "values": [{"measurement": "targeting to subcutaneous tumors (fluorescence)", "setting": "[8]", "result": "efficiently targeted to subcutaneous tumors"}]}, {"compound": "Ac-RRGVHVGWREPSFMALSMPHGGSGK-(FITC) (Ac-RRGVHVGWREPSFMALSMPHGGSGK(FITC′)) [Construct 1]", "values": [{"measurement": "binding to collagen (retention of the constructs to the column)", "setting": "[9]", "result": "bound to collagen in a dose dependent manner"}]}]}
